Source: patent US4315858A, “Antibacterial amide compounds” (Warner-Lambert Company, priority 1980, dated 1982)
Values after ≈ are worked out from the molar mass of the structure shown.

What was measured:
Assay type in all cases: cell-based
Entero. cloacae = assay: Minimal inhibitory concentration against Entero. cloacae; details: Enterobacter cloacae
[1] = tested on: Pseudomonas aeruginosa #28; assay: Minimal inhibitory concentration against Pseudomonas aeruginosa #28
Staph. aureus S18713 = assay: Minimal inhibitory concentration against Staph. aureus S18713; details: Staphylococcus aureus
Serr. marces. = assay: Minimal inhibitory concentration against Serr. marces.
Klebs. pneu. = assay: Minimal inhibitory concentration against Klebs. pneu.

With `CC(=O)Nc1ccc(-c2ccc(C(=O)N[C@@H](C(=O)N[C@@H]3C(=O)N4[C@@H]3SC(C)(C)[C@@H]4C(=O)O)c3ccccc3)c(=O)[nH]2)cc1` [Example 1, N-[6-[4-(Acetylamino)phenyl]-1,2-dihydro-2-oxonicotinoyl]-ampicillin] the MIC (Entero. cloacae) was 12.5 µg/mL (≈ 20.7 µM), the MIC [1] was 3.1 µg/mL (≈ 5.14 µM) and the MIC (Staph. aureus S18713) was 100 µg/mL (≈ 166 µM). For the same compound, the MIC (Serr. marces.) was 25 µg/mL (≈ 41.4 µM) and the MIC (Klebs. pneu.) was 6.3 µg/mL (≈ 10.4 µM).

`CC(=O)Nc1ccc(-c2ccc(C(=O)N[C@@H](C(=O)N[C@@H]3C(=O)N4[C@@H]3SC(C)(C)[C@@H]4C(=O)O)c3ccc(O)cc3)c(=O)[nH]2)cc1` [Example 2, N-[6-[4-(acetylamino)phenyl]-1,2-dihydro-2-oxonicotinoyl]amoxicillin] showed an MIC (Entero. cloacae) of 6.3 µg/mL (≈ 10.2 µM), an MIC [1] of 3.1 µg/mL (≈ 5 µM) and an MIC (Staph. aureus S18713) of 200 µg/mL (≈ 323 µM). It also gave an MIC (Serr. marces.) of 25 µg/mL (≈ 40.3 µM) and an MIC (Klebs. pneu.) of 12.5 µg/mL (≈ 20.2 µM).

In the case of `CC1(C)S[C@@H]2[C@H](NC(=O)[C@H](NC(=O)c3ccc(-c4ccc(NC(=O)C(F)(F)F)cc4)[nH]c3=O)c3ccccc3)C(=O)N2[C@H]1C(=O)O` [Example 3, N-[6-[4(Trifluoroacetylamino)phenyl]-1,2-dihydro-2-oxonicotinoyl]ampicillin], the MIC (Entero. cloacae) is reported as 3.1 µg/mL (≈ 4.71 µM), the MIC [1] is reported as 6.3 µg/mL (≈ 9.58 µM) and the MIC (Staph. aureus S18713) is reported as 200 µg/mL (≈ 304 µM). The MIC (Serr. marces.) was 25 µg/mL (≈ 38 µM) and the MIC (Klebs. pneu.) was 6.3 µg/mL (≈ 9.58 µM).

Work on `CC1(C)S[C@@H]2[C@H](NC(=O)[C@H](NC(=O)c3ccc(-c4ccc(NC(=O)C(F)(F)F)cc4)[nH]c3=O)c3ccc(O)cc3)C(=O)N2[C@H]1C(=O)O` [Example 4, N-[6-[4-(Trifluoroacetylamino)phenyl]-1,2-dihydro-2-oxonicotinoyl]amoxicillin] yielded an MIC (Entero. cloacae) of 3.1 µg/mL (≈ 4.6 µM), an MIC [1] of 1.6 µg/mL (≈ 2.38 µM) and an MIC (Staph. aureus S18713) of 100 µg/mL (≈ 148 µM). The MIC (Serr. marces.) was 100 µg/mL (≈ 148 µM) and the MIC (Klebs. pneu.) was 3.1 µg/mL (≈ 4.6 µM).

Compound `CC1(C)S[C@@H]2[C@H](NC(=O)[C@H](NC(=O)c3ccc(-c4ccc(NC(=O)CC#N)cc4)[nH]c3=O)c3ccc(O)cc3)C(=O)N2[C@H]1C(=O)O` [Example 5] has an MIC (Entero. cloacae) of 1.6 µg/mL (≈ 2.48 µM), an MIC [1] of 1.6 µg/mL (≈ 2.48 µM) and an MIC (Staph. aureus S18713) of 100 µg/mL (≈ 155 µM). It also gave an MIC (Serr. marces.) of 200 µg/mL (≈ 310 µM) and an MIC (Klebs. pneu.) of 3.1 µg/mL (≈ 4.81 µM).

`CC1(C)S[C@@H]2[C@H](NC(=O)[C@H](NC(=O)c3ccc(-c4ccc(NC(=O)Cc5nn[nH]n5)cc4)[nH]c3=O)c3ccc(O)cc3)C(=O)N2[C@H]1C(=O)O` [Example 6] was tested, and the MIC (Entero. cloacae) was 1.6 µg/mL (≈ 2.33 µM), the MIC [1] was 3.1 µg/mL (≈ 4.51 µM) and the MIC (Staph. aureus S18713) was > 50 µg/mL. For the same compound, the MIC (Serr. marces.) was 1.6 µg/mL (≈ 2.33 µM) and the MIC (Klebs. pneu.) was 12.5 µg/mL (≈ 18.2 µM).

In the case of `CC(=O)C(=O)Nc1ccc(-c2ccc(C(=O)N[C@@H](C(=O)N[C@@H]3C(=O)N4[C@@H]3SC(C)(C)[C@@H]4C(=O)O)c3ccc(O)cc3)c(=O)[nH]2)cc1` [Example 7, N-[6-[4-(1,2-Dioxopropylamino)phenyl]-1,2-dihydro-2-oxonicotinoyl]amoxicillin], the MIC (Entero. cloacae) is reported as 3.1 µg/mL (≈ 4.79 µM), the MIC [1] is reported as 1.6 µg/mL (≈ 2.47 µM) and the MIC (Staph. aureus S18713) is reported as 25 µg/mL (≈ 38.6 µM). It also gave an MIC (Serr. marces.) of 3.1 µg/mL (≈ 4.79 µM) and an MIC (Klebs. pneu.) of 12.5 µg/mL (≈ 19.3 µM).

With `CC1(C)S[C@@H]2[C@H](NC(=O)[C@H](NC(=O)c3ccc(-c4ccc(NC(=O)CSCC(F)(F)F)cc4)[nH]c3=O)c3ccc(O)cc3)C(=O)N2[C@H]1C(=O)O` [Example 8] the MIC (Entero. cloacae) was 6.3 µg/mL (≈ 8.59 µM), the MIC [1] was 0.8 µg/mL (≈ 1.09 µM) and the MIC (Staph. aureus S18713) was > 50 µg/mL. The MIC (Serr. marces.) was 0.4 µg/mL (≈ 0.545 µM) and the MIC (Klebs. pneu.) was 3.1 µg/mL (≈ 4.22 µM).

In the case of `CC1(C)S[C@@H]2[C@H](NC(=O)[C@H](NC(=O)c3ccc(-c4ccc(NC(=O)CSCC#N)cc4)[nH]c3=O)c3ccc(O)cc3)C(=O)N2[C@H]1C(=O)O` [Example 9], the MIC (Entero. cloacae) is reported as 12.5 µg/mL (≈ 18.1 µM), the MIC [1] is reported as 1.6 µg/mL (≈ 2.32 µM) and the MIC (Staph. aureus S18713) is reported as > 50 µg/mL. The MIC (Serr. marces.) was 1.6 µg/mL (≈ 2.32 µM) and the MIC (Klebs. pneu.) was 6.3 µg/mL (≈ 9.12 µM).

In the case of `CCOC(=O)C(=O)Nc1ccc(-c2ccc(C(=O)N[C@@H](C(=O)N[C@@H]3C(=O)N4[C@@H]3SC(C)(C)[C@@H]4C(=O)O)c3ccc(O)cc3)c(=O)[nH]2)cc1` [Example 10, N-[6-[4-[(2-Ethoxy-1,2-dioxoethyl)amino]phenyl]-1,2-dihydro-2-oxonicotinoyl]amoxicillin], the MIC (Entero. cloacae) is reported as 1.6 µg/mL (≈ 2.36 µM), the MIC [1] is reported as 6.3 µg/mL (≈ 9.3 µM) and the MIC (Staph. aureus S18713) is reported as 50 µg/mL (≈ 73.8 µM). For the same compound, the MIC (Serr. marces.) was 200 µg/mL (≈ 295 µM) and the MIC (Klebs. pneu.) was 6.3 µg/mL (≈ 9.3 µM).

Work on `CC1(C)S[C@@H]2[C@H](NC(=O)[C@H](NC(=O)c3ccc(-c4ccc(NC(=O)OCc5ccccc5)cc4)[nH]c3=O)c3ccccc3)C(=O)N2[C@H]1C(=O)O` [Example 11, N-[6-[4-(Benzyloxycarbonylamino)phenyl]-1,2-dihydro-2-oxonicotinoyl]ampicillin] yielded an MIC (Entero. cloacae) of 6.3 µg/mL (≈ 9.05 µM), an MIC [1] of 1.6 µg/mL (≈ 2.3 µM) and an MIC (Staph. aureus S18713) of 50 µg/mL (≈ 71.9 µM). It also gave an MIC (Serr. marces.) of 12.5 µg/mL (≈ 18 µM) and an MIC (Klebs. pneu.) of 0.8 µg/mL (≈ 1.15 µM).

In the case of `COC(=O)Nc1ccc(-c2ccc(C(=O)N[C@@H](C(=O)N[C@@H]3C(=O)N4[C@@H]3SC(C)(C)[C@@H]4C(=O)O)c3ccc(O)cc3)c(=O)[nH]2)cc1` [Example 12, N-[6-[4-(Methoxycarbonylamino)phenyl]-1,2-dihydro-2-oxonicotinoyl]amoxicillin], the MIC (Entero. cloacae) is reported as 1.6 µg/mL (≈ 2.52 µM), the MIC [1] is reported as 1.6 µg/mL (≈ 2.52 µM) and the MIC (Staph. aureus S18713) is reported as 100 µg/mL (≈ 157 µM). For the same compound, the MIC (Serr. marces.) was 25 µg/mL (≈ 39.3 µM) and the MIC (Klebs. pneu.) was 3.1 µg/mL (≈ 4.88 µM).

For `CC1(C)S[C@@H]2[C@H](NC(=O)[C@H](NC(=O)c3ccc(-c4ccc(NC(=O)Cc5ccccc5)cc4)[nH]c3=O)c3ccc(O)cc3)C(=O)N2[C@H]1C(=O)O` [Example 13, N-[6-[4-(Phenylacetylamino)phenyl]-1,2-dihydro-2-oxonicotinoyl]amoxicillin], the MIC (Entero. cloacae) was 1.6 µg/mL (≈ 2.3 µM), the MIC [1] was 1.6 µg/mL (≈ 2.3 µM) and the MIC (Staph. aureus S18713) was 50 µg/mL (≈ 71.9 µM). The MIC (Serr. marces.) was 50 µg/mL (≈ 71.9 µM) and the MIC (Klebs. pneu.) was 3.1 µg/mL (≈ 4.46 µM).

In the case of `CCNC(=O)Nc1ccc(-c2ccc(C(=O)N[C@@H](C(=O)N[C@@H]3C(=O)N4[C@@H]3SC(C)(C)[C@@H]4C(=O)O)c3ccc(O)cc3)c(=O)[nH]2)cc1` [Example 14, N-[6-[4-(N-Ethylcarbamoylamino)phenyl]-1,2-dihydro-2-oxonicotinoyl]amoxicillin], the MIC (Entero. cloacae) is reported as 3.1 µg/mL (≈ 4.78 µM), the MIC [1] is reported as 0.8 µg/mL (≈ 1.23 µM) and the MIC (Staph. aureus S18713) is reported as 50 µg/mL (≈ 77.1 µM). It also gave an MIC (Serr. marces.) of 0.8 µg/mL (≈ 1.23 µM) and an MIC (Klebs. pneu.) of 6.3 µg/mL (≈ 9.71 µM).

In the case of `CC(=O)Nc1cccc(-c2ccc(C(=O)N[C@@H](C(=O)N[C@@H]3C(=O)N4[C@@H]3SC(C)(C)[C@@H]4C(=O)O)c3ccccc3)c(=O)[nH]2)c1` [Example 15, N-[6-[3-(Acetylamino)phenyl]-1,2-dihydro-2-oxonicotinoyl]ampicillin], the MIC (Entero. cloacae) is reported as 6.3 µg/mL (≈ 10.4 µM), the MIC [1] is reported as 6.3 µg/mL (≈ 10.4 µM) and the MIC (Staph. aureus S18713) is reported as > 200 µg/mL. It also gave an MIC (Serr. marces.) of 12.5 µg/mL (≈ 20.7 µM) and an MIC (Klebs. pneu.) of 3.1 µg/mL (≈ 5.14 µM).
